Experimental data taken from BindingDB's records for doi:10.1007/s00044-011-9938-0 (n/a, 2012).

target: Alpha-glucosidase MAL62 (Saccharomyces cerevisiae, UniProt P07265); experiment: Inhibition of baker's yeast alpha-glucosidase using p-nitrophenyl-alpha-D-glucopyranoside as substrate by spectrophotometry
Sequence (P07265 whole entry): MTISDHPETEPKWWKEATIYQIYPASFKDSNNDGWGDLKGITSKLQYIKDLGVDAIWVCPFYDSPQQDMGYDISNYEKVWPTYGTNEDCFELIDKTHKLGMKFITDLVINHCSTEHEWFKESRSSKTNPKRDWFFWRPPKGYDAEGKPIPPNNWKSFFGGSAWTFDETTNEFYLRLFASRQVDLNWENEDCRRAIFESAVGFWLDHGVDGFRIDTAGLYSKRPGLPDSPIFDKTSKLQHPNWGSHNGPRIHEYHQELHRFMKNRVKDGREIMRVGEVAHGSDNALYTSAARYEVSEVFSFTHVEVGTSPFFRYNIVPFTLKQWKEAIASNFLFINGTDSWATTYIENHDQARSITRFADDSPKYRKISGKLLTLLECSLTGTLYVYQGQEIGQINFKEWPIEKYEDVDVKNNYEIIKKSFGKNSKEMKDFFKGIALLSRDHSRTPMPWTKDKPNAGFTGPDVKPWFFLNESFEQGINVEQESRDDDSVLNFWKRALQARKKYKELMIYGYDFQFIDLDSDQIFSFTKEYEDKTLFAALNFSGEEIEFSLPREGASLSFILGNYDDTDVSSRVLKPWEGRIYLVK

First: CC1(C)C=Cc2cc(C(=O)/C=C/c3ccc(O)c(O)c3)c(O)cc2O1
Second: CC1(C)C=Cc2cc(C(=O)/C=C/c3ccc(O)cc3)c(O)cc2O1 [4-HYDROXYISOLONCHOCARPIN]
The IC50 of the first is 1.6-fold higher: 19.1 µM for the first, 12.3 µM for the second. The second is the more potent here.

First: C=C(C)C(CC=C(C)C)Cc1c(O)cc(OC)c2c1OC(c1ccc(OC)cc1O)CC2=O (stereo not drawn)
Second: C=C(C)C(CC=C(C)C)Cc1c(O)cc(OC)c2c1OC(c1ccc(O)cc1O)CC2=O (stereo not drawn)
The IC50 of the first is 2.3-fold higher: 155 µM for the first, 68.1 µM for the second.

`O=C(O)/C=C/c1ccc(F)cc1` and `O=C(O)/C=C/c1ccc(Cl)cc1` [CHEBI:61116] are within 1.5-fold of each other in IC50: 270 µM for the first, 390 µM for the second.

Compared with `CC(C)=CCc1cc(C2CCc3ccc(O)cc3O2)cc(O)c1O` (stereo not drawn) [5-(7-Hydroxy-chroman-2-yl)-3-(3-methyl-but-2-enyl)-benzene-1,2-diol], `CC(C)=CCc1cc(C2CCc3ccc(O)cc3O2)c(CC=C(C)C)c(O)c1O` (stereo not drawn) is 6.3-fold lower in IC50: 75.7 µM for the first, 12 µM for the second.

First: CC(C)=CCc1cc(C(=O)/C=C/c2ccc(O)cc2)c(O)cc1O [BROUSSOCHALCONE B]
Second: CC(C)=CCc1cc(C(=O)/C=C/c2ccc(O)c(O)c2)c(O)cc1O [broussochalcone A]
The IC50 of the first is 2.1-fold higher: 11.1 µM for the first, 5.3 µM for the second.

`C=CC(C)(C)c1c(O)cc(O)c2c(=O)c3oc4c5c(c(OCC=C(C)C)cc4c3oc12)OC(C)(C)C=C5` and `C=CC(C)(C)c1c(O)cc(O)c2c(=O)c3oc4c(CC=C(C)C)c(O)c(OCC=C(C)C)cc4c3oc12` are within 1.5-fold of each other in IC50: 27.6 µM for the first, 33.3 µM for the second.

First: CC(C)=CCc1cc(-c2oc3cc(O)c(CC=C(C)C)c(O)c3c(=O)c2O)cc(O)c1O [CHEBI:66727]
Second: C=CC(C)(C)c1c(O)cc(O)c2c(=O)c(O)c(-c3cc(O)c(O)c(CC=C(C)C)c3)oc12 [2-[3,4-Dihydroxy-5-(3-methyl-but-2-enyl)-phenyl]-8-(1,1-dimethyl-allyl)-3,5,7-trihydroxy-chromen-4-one]
The IC50 of the first is 1.7-fold lower: 2.1 µM for the first, 3.6 µM for the second. The first is the more potent here.

First: O=C1C[C@@H](c2ccc(O)cc2)Oc2cc(O)cc(O)c21
Second: COc1ccc([C@@H]2CC(=O)c3c(O)cc(O)cc3O2)cc1O [(2S)-5,7-dihydroxy-2-(3-hydroxy-4-methoxyphenyl)-3,4-dihydro-2H-1-benzopyran-4-one]
The IC50 of the first is 2-fold lower: 75 µM for the first, 150 µM for the second.

First: O=c1c(O)c(-c2ccc(O)c(O)c2)oc2cc(O)ccc12 [2-(3,4-dihydroxyphenyl)-3,7-dihydroxy-chromen-4-one]
Second: O=c1c(O)c(-c2ccc(O)c(O)c2)oc2cc(O)cc(O)c12 [2-(3,4-dihydroxyphenyl)-3,5,7-trihydroxy-chromone;hydrate]
The IC50 of the first is 1.9-fold higher: 13 µM for the first, 7 µM for the second. The second is the more potent here.

First: COc1cc(O)c(C(C)=C(C)C)c2c1C(=O)CC(c1ccc(O)cc1)O2 (stereo not drawn)
Second: C=C(C)C(CCC(C)(C)O)Cc1c(O)cc(OC)c2c1OC(c1ccc(O)cc1O)CC2=O (stereo not drawn)
The IC50 of the first is 2-fold higher: 358 µM for the first, 179 µM for the second.

`CCOC(=O)/C=C/c1ccc(OC)cc1` [4-Methoxy Ethyl Cinnamate] and `COc1ccc(/C=C/C(=O)O)cc1` [3-(4-methoxyphenyl)acrylic acid] are within 1.5-fold of each other in IC50: 50 µM for the first, 40 µM for the second.

First: Oc1cc(O)c2c(c1)O[C@H](c1ccc(O)c(O)c1)[C@@H](O)C2 [CHEBI:23053]
Second: Oc1cc(O)c2c(c1)O[C@H](c1cc(O)c(O)c(O)c1)[C@H](O)C2 [CHEBI:71224]
The IC50 of the first is 1.7-fold higher: 130 µM for the first, 75 µM for the second.

First: O=c1c(-c2ccc(O)cc2)coc2cc(O)ccc12
Second: O=c1c(-c2ccc(O)cc2)coc2cc(O)cc(O)c12 [Prunetol]
The IC50 of the first is 2-fold higher: 14 µM for the first, 7 µM for the second. The second is the more potent here.

Going from `OC[C@H]1OC(OC2=C(c3cc(O)c(O)c(O)c3)Oc3cc(O)cc(O)c3C2)[C@@H](O)[C@@H](O)[C@@H]1O` (stereo partly drawn) to `OC[C@H]1OC(OC2=C(c3ccc(O)c(O)c3)Oc3cc(O)cc(O)c3C2)[C@@H](O)[C@@H](O)[C@@H]1O` (stereo partly drawn), the IC50 falls from 30 µM to 20 µM (1.5-fold). The second is the more potent here.

Compared with `O=c1c(O)c(-c2ccc(O)cc2O)oc2cc(O)cc(O)c12` [2-(2,4-dihydroxyphenyl)-3,5,7-trihydroxychromen-4-one], `O=c1c(O)c(-c2ccc(O)cc2)oc2cc(O)cc(O)c12` is 3.3-fold lower in IC50: 40 µM for the first, 12 µM for the second. The second is the more potent here.

Going from `CC(C)=CCc1c(C2CCc3ccc(O)cc3O2)cc2c(c1O)OC(C)(C)C=C2` (stereo not drawn) to `C=CC(C)(C)c1cc2c(cc1O)OC(c1cc(O)c(O)c(CC=C(C)C)c1C/C=C\C)CC2` (stereo not drawn), the IC50 falls from 26.3 µM to 10.6 µM (2.5-fold).

`O=C(O)c1cc(O)c(O)c(O)c1` [Gallic Acid, F] and `O=c1c(O)c(-c2cc(O)c(O)c(O)c2)oc2cc(O)cc(O)c12` are within 1.5-fold of each other in IC50: 5.2 µM for the first, 5 µM for the second.

`C=C(C)C(CC=C(C)C)Cc1c(O)cc(O)c2c1OC(c1ccccc1O)CC2=O` (stereo not drawn) and `C=C(C)C(CC=C(C)C)Cc1c(O)cc(O)c2c1OC(c1ccc(O)cc1O)CC2=O` (stereo not drawn) are within 1.5-fold of each other in IC50: 45 µM for the first, 37 µM for the second.

Going from `O=C(O)/C=C/c1ccc(Oc2ccccc2)cc1` to `O=C(O)/C=C/c1ccc(O)cc1` [p-Coumaric Acid], the IC50 falls from 440 µM to 200 µM (2.2-fold).

Going from `O=c1cc(-c2ccc(O)c(O)c2)oc2cc(O)cc(O)c12` [2-(3,4-dihydroxyphenyl)-5,7-dihydroxy-4H-chromen-4-one] to `O=c1cc(O)cc2oc(-c3ccc(O)c(O)c3)c(O)cc1-2`, the IC50 falls from 21 µM to 4 µM (5.2-fold). The second is the more potent here.

First: COc1cccc(/C=C/C(=O)O)c1
Second: O=C(O)/C=C/c1cccc(O)c1 [(2E)-3-(3-hydroxyphenyl)prop-2-enoic acid]
The IC50 of the first is 2.2-fold lower: 579 µM for the first, 1270 µM for the second. The first is the more potent here.

With `O=C(O[C@@H]1Cc2c(O)cc(O)cc2O[C@@H]1c1cc(O)c(O)c(O)c1)c1cc(O)c(O)c(O)c1` [epigallocatechin gallate] the IC50 was 2 µM.
